The subject of one assay is CU-ACC1. Put plainly: area under concentration-response curve (viability) (AUC (a.u.)); higher = less active. Particulars: 48 h. Put shortly: (§1)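 Cells from three adrenocortical carcinoma lines were seeded at 500–1,000 cells/well in 5 µL medium in 1,536-well plates. Each library compound was added as 23 nL at 11 concentrations, and after 48 h CellTiter-Glo was added for 15 minutes at room temperature before reading luminescence. Plate-wise normalisation to vehicle and empty-well controls preceded curve fitting. AC50 and area under the curve were calculated only for inhibitory or non-responding curve classes.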

The test system of another assay is CU-ACC2. The description is as above. Conditions: 48 h. Put shortly:
as §1

`CC(=O)Oc1cc2c(s1)CCN(C(C(=O)C1CC1)c1ccccc1F)C2` (stereo not given): the “area under concentration-response curve” value was 492 in the assay on CU-ACC1 and 476 with CU-ACC2. Consider `O=C(C1CC1)N1CC[C@@H](Cn2c(-c3ccc(-c4ccc5occc5c4)cc3)nc3cnccc32)C1`, for which the “area under concentration-response curve” value in the assay with CU-ACC1 was found to be 505; in the assay on CU-ACC2, 486.

In the case of `N=C1N[C@H]2[C@H](CS[C@H]2CCCCC(=O)O)N1`, the “area under concentration-response curve” value with CU-ACC1 came out at 217; in the assay with CU-ACC2 it was 256. Regarding `O=C(c1ccccc1)c1ccc2n1CCC2C(=O)O` (stereo not given), the “area under concentration-response curve” value was 448 in the assay with CU-ACC1 and 529 in the assay on CU-ACC2. The matching figures for `O=C(Nc1ccc(OC(F)(F)F)cc1)c1sccc1NCc1ccnc2ccccc12`: 525 and 639. In the case of `CN(C)C(=N)NC(=N)N`, the “area under concentration-response curve” value with CU-ACC1 turned out to be 550; with CU-ACC2, 572. Consider `Nc1ncnc2c1nc(Cl)n2[C@@H]1O[C@H](CO)[C@@H](O)[C@H]1O`, for which the figures for the “area under concentration-response curve” value in the assay on CU-ACC1 and with CU-ACC2 were 471 and 542, respectively. Consider `CC(C)(C)c1cc(C=C(C#N)C#N)cc(Br)c1O`, for which the “area under concentration-response curve” value with CU-ACC1 was 552; in the assay on CU-ACC2, 583. For the compound `Cn1cc(-c2ccncc2)c(-c2ccc(OCc3ccc4ccccc4n3)cc2)n1`, the “area under concentration-response curve” value was 495 in the assay with CU-ACC1 and 597 in the assay with CU-ACC2. As for `O=C1Nc2ccccc2/C1=C1\Nc2ccccc2C1=O`, the “area under concentration-response curve” value with CU-ACC1 turned out to be 557; in the assay with CU-ACC2, 589. Consider `CCCCc1ccc(N[S+](=O)([O-])c2ccc(C)c(C(=O)N3CCN(c4cccc(C)c4C)CC3)c2)cc1`, for which the results for the “area under concentration-response curve” value in the assay on CU-ACC1 and in the assay on CU-ACC2 were 527 and 634, respectively.

In the case of `CN(C)CCN(C)CCc1ccc(Cl)c(Cl)c1`, the results for the “area under concentration-response curve” value in the assay on CU-ACC1 and with CU-ACC2 were 574 and 581, respectively. `CCCCCCCCCCCCCC(=O)N[C@H](CO)[C@H](O)c1ccc([N+](=O)[O-])cc1`: the “area under concentration-response curve” value in the assay on CU-ACC1 is 502; with CU-ACC2, 598. `COc1ccc2c(c1)c(CC(=O)O)c(C)n2C(=O)c1ccc(Cl)cc1`: the “area under concentration-response curve” value in the assay with CU-ACC1 is 495; in the assay on CU-ACC2, 566. The corresponding values for `CCN(CC)C(=O)Cc1csc(N[S+](=O)([O-])c2cccc(Cl)c2C)n1` are 415 and 445. In the case of `COc1ccc2[n-]c([S+]([O-])Cc3ncc(C)c(OC)c3C)nc2c1` (stereo not given), the results for the “area under concentration-response curve” value with CU-ACC1 and in the assay with CU-ACC2 were 387 and 398, respectively. The matching figures for `Cn1ccc2cc3c(cc21)CCN3C(=O)Nc1cccnc1`: 455 and 490. Take `Cn1cc(C[C@@H](N)C(=O)O)c2ccccc21`: the “area under concentration-response curve” value with CU-ACC1 is 619; with CU-ACC2, 658. In the case of `CN1CCC(=C2c3ccccc3CC(=O)c3sccc32)CC1`, the “area under concentration-response curve” value in the assay on CU-ACC1 is 557; with CU-ACC2, 537. As for `COc1ccccc1C(=O)Nc1cc2c(cc1N1CCCC1)n(C)c(=O)n2C`, the “area under concentration-response curve” value in the assay on CU-ACC1 worked out at 537; with CU-ACC2, 602. On to `CN1CCc2c(c3ccccc3n2Cc2ccc(C(=O)NO)cc2)C1`, for which the “area under concentration-response curve” value with CU-ACC1 came out at 553; in the assay on CU-ACC2, 595. On to `CCC\C1=C\C(=O)NC(=S)N1`, for which the entries for the “area under concentration-response curve” value with CU-ACC1 and with CU-ACC2 were 467 and 545, respectively. Consider `O=P(O)(O)C(O)(Cn1ccnc1)P(=O)(O)O`, for which the results for the “area under concentration-response curve” value in the assay with CU-ACC1 and with CU-ACC2 were 628 and 679, respectively. On to `C[C@H](NC(=O)C1=C2N=CC=C[N]2N=C1N)\C3=C\C4=CC=CC(=C4C(=O)N3C5=CC=CC=C5)C#CC6=C[N](C)N=C6`, for which the figures for the “area under concentration-response curve” value with CU-ACC1 and in the assay with CU-ACC2 were 511 and 608, respectively. With `Cc1[nH]c(=O)c(C#N)cc1-c1ccc2nccn2c1.Cl`, the “area under concentration-response curve” value in the assay on CU-ACC1 was found to be 587; in the assay on CU-ACC2, 624.

As to `CCN1CCCC1CNC(=O)c1cc([S+](=O)([O-])CC)c(N)cc1OC` (stereo not given), the “area under concentration-response curve” value in the assay with CU-ACC1 was 561; in the assay on CU-ACC2 it was 591. The matching figures for `CC(C)(O)CCc1ccc(OCc2cc(-c3cccc(OC(F)F)c3)c3ncccc3c2)cc1`: 543 and 586. Turning to `CN1C(=O)[C@@H](NC(=O)c2cc(Cc3ccccc3)on2)COc2ccccc21`, the “area under concentration-response curve” value in the assay on CU-ACC1 is 361; in the assay with CU-ACC2 it was 325. For `CC[C@H](C)C(=O)O[C@H]1C[C@H](O)\C=C2\C=C/[C@H](C)[C@H](CC[C@@H](O)C[C@@H](O)CC(O)=O)[C@@H]12`, the “area under concentration-response curve” value with CU-ACC1 stood at 544; in the assay with CU-ACC2, 576. Regarding `COc1ncnc(N[S+](=O)([O-])c2ccc(N)cc2)c1OC`, the “area under concentration-response curve” value was determined as 593 with CU-ACC1 and 604 in the assay on CU-ACC2. Regarding `CNC(=O)c1ccc(N2C(=S)N(c3cnc(C#N)c(C(F)(F)F)c3)C(=O)C23CCC3)cc1F`, the “area under concentration-response curve” value in the assay on CU-ACC1 came out at 505; with CU-ACC2, 565. As to `COC1=C(CN(C)C)C=C(OC)C(=C1)C/2=C/N(C)C(=O)C3=C2C=CN=C3`, the results for the “area under concentration-response curve” value with CU-ACC1 and in the assay on CU-ACC2 were 516 and 597, respectively. As for `CC(=O)OCC(=O)[C@@]1(O)CC[C@H]2[C@@H]3CCC/4=C/C(=O)CC[C@]4(C)[C@H]3C(=O)C[C@]12C`, the “area under concentration-response curve” value with CU-ACC1 was determined as 531; with CU-ACC2 it was 617. As for `CC(C)(c1ccc(OCC(O)CO)cc1)c1ccc(OCC(O)CCl)cc1` (stereo not given), the results for the “area under concentration-response curve” value with CU-ACC1 and with CU-ACC2 were 384 and 301, respectively. The corresponding values for `Cl.NC(CO)C(=O)NNCc1ccc(O)c(O)c1O` (stereo not given) are 562 and 627.

On to `CC(C)NCCCn1c(Sc2cc(Cl)cc(Cl)c2)nc2c(N)ncnc21`, for which the “area under concentration-response curve” value with CU-ACC1 came out at 511; in the assay with CU-ACC2, 572. With `CC(C)(C)NC(=O)[C@H]1CC[C@H]2[C@@H]3CC[C@H]4NC(=O)\C=C/[C@]4(C)[C@H]3CC[C@]12C`, the figures for the “area under concentration-response curve” value in the assay on CU-ACC1 and in the assay on CU-ACC2 were 618 and 622, respectively.

As for `Nc1nnc(-c2cccc(Cl)c2Cl)c(N)n1`, the “area under concentration-response curve” value came to 563 with CU-ACC1 and 630 in the assay with CU-ACC2.

For the compound `COCCCOc1cc(C[C@@H](C[C@H](N)[C@@H](O)C[C@H](C(=O)NCC(C)(C)C(N)=O)C(C)C)C(C)C)ccc1OC`, the “area under concentration-response curve” value stood at 564 with CU-ACC1 and 648 with CU-ACC2. Consider `CSC[C@H]1CN(Cc2c[nH]c3c(N)ncnc23)C[C@@H]1O`, for which the “area under concentration-response curve” value was 364 in the assay with CU-ACC1 and 417 in the assay on CU-ACC2. Turning to `CC(C)(C)C1=NC2=C([NH]1)C3=CC=C(F)C=C3C4=C2\C=C/NC4=O`, the “area under concentration-response curve” value with CU-ACC1 came to 494; with CU-ACC2, 500. `NC/1=N/C(=O)N(/C=C1)[C@@H]2O[C@H](CO)[C@@H](O)C2(F)F`: the results for the “area under concentration-response curve” value in the assay on CU-ACC1 and in the assay with CU-ACC2 were 497 and 541, respectively.

In the case of `CNNCc1ccc(C(=O)NC(C)C)cc1`, the entries for the “area under concentration-response curve” value in the assay with CU-ACC1 and with CU-ACC2 were 517 and 526, respectively.

In the case of `c1ccc(-c2nn3c(c2-c2ccnc4cc(OCCN5CCOCC5)ccc24)CCC3)nc1`, the “area under concentration-response curve” value with CU-ACC1 came to 479; in the assay with CU-ACC2 it was 496.

For the compound `CC(C)Cc1ccc(C(C)C(=O)O)cc1` (stereo not given), the “area under concentration-response curve” value worked out at 539 with CU-ACC1 and 583 in the assay with CU-ACC2. As to `C[C@H](Nc1nc(N[C@H](C)C(F)(F)F)nc(-c2cccc(Cl)n2)n1)C(F)(F)F`, the “area under concentration-response curve” value in the assay with CU-ACC1 turned out to be 547; with CU-ACC2, 606. For the compound `Nc1c2c(nc3ccccc13)CCCC2`, the “area under concentration-response curve” value with CU-ACC1 is 583; in the assay on CU-ACC2, 653.

Regarding `CCCCCCCCCCCCCCCCOCCCO[P](O)(=O)COC(CO)CN1/C=C\C(=N/C1=O)N` (stereo not given), the “area under concentration-response curve” value came to 551 with CU-ACC1 and 609 in the assay on CU-ACC2. The matching figures for `CCC(=O)OCC(=O)C1(OC(=O)CC)C(C)CC2C3CC\C4=C\C(=O)\C=C/C4(C)C3(F)C(O)CC12C` (stereo not given): 528 and 613.

Consider `CC(C)N(C[C@H]1O[C@@H](n2cnc3c(N)ncnc32)[C@H](O)[C@@H]1O)[C@H]1C[C@@H](CCc2nc3cc(C(C)(C)C)ccc3[nH]2)C1`, for which the figures for the “area under concentration-response curve” value with CU-ACC1 and in the assay with CU-ACC2 were 543 and 598, respectively.

`CNC(=O)c1ccccc1Nc1nc(Nc2ccc3c(c2OC)CCC[C@@H](N2CCN(CCO)CC2)C3)ncc1Cl`: the “area under concentration-response curve” value with CU-ACC1 came to 548; in the assay with CU-ACC2 it was 644. With `C=C1C(=O)OC2/C=C(/C)CC/C=C(/C)CCC12` (stereo not given), in the assay on CU-ACC2, the “area under concentration-response curve” value is 598. For `NC1=NC(=O)N2CC12` (stereo not given), in the assay on CU-ACC2, the “area under concentration-response curve” value came out at 592.

For the compound `O=C(O)c1ccc(-n2nc(-c3ccccc3O)nc2-c2ccccc2O)cc1`, the “area under concentration-response curve” value in the assay with CU-ACC2 stood at 590.

These data come from the supplement of paper PMC10949913.
